Columns and labels:
[1] = Osmotic pressure (osmolality) in an osmometer; assay type: physicochemical
Method: The osmotic pressure analysis measures the driving force of a solution to displace water molecules through a membrane from the medium in one side to the other. Considering the membrane is the esophageal epithelium, high osmolality means loss of water from the surrounding tissues to the GI tract. […] […] The osmolality of the powders produced through micro-encapsulation using spray congealing and spray drying were measured and compared to those of the pure contrast agents.

[2] = Particle size and morphology by PLM / SEM imaging; assay type: physicochemical; conditions: raw, non-encapsulated iopamidol particles

## CC(=O)N(CC(O)CO)c1c(I)c(C(=O)NCC(O)CO)c(I)c(C(=O)NCC(O)CO)c1I (centres unmarked) [Iohexol (raw), 1-N,3-N-bis(2,3-dihydroxypropyl)-5-[N-(2,3-dihydroxypropyl)acetamido]-2,4,6-triiodobenzene-1,3-dicarboxamide]
[1]
  mOsmol at 15 mg l/mL: 36 mOsmol
  mOsmol at 300 mg l/mL: 413 mOsmol

## C[C@H](O)C(=O)Nc1c(I)c(C(=O)NC(CO)CO)c(I)c(C(=O)NC(CO)CO)c1I [Iopamidol (raw), 1-N,3-N-bis(1,3-dihydroxypropan-2-yl)-5-[(2S)-2-hydroxypropanamido]-2,4,6-triiodobenzene-1,3-dicarboxamide]
[2]
  Diameter of iopamidol particles: approximately 3 μm
[1]
  mOsmol at 15 mg l/mL: 30 mOsmol
  mOsmol at 300 mg l/mL: 572 mOsmol

Reference: US20150151008A1, “Contrast Media Taste Masking Formulations” (HOVIONE SCIENTIA LIMITED, priority 2013, published 2015)
